Measured values published in US8008487B2, “Substituted thieno[2,3-D]pyrimidines as fungicides” (priority 2004, dated 2011).
Like-named read-outs stand apart in the source and are kept apart here.

Experiments:
Format in all cases: in vivo
[1] = test system: Puccinia recondita tritici; assay: Leaf Rust of Wheat (PUCCRT), whole-plant fungicide test; settings: 200 ppm on foliage, one-day protectant test; for pest or weed control at 200 ppm: Puccinia recondita, foliar, 24 h, read-out: PUCCRT percent control of disease
[2] = test system: Phytophthora infestans; assay: whole plant or invertebrate; settings: for pest or weed control at 200 ppm: Phytophthora infestans, in Solanum lycopersicum, foliar, 24 h, read-out: PHYTIN percent control of disease, 200 ppm on foliage, tomato, one-day protectant test
[3] = test system: Cochliobolus sativus; assay: Spot Blotch of Wheat (COCHSA), whole-plant fungicide test; settings: Bipolaris sorokiniana, foliar, 24 h, 200 ppm on foliage, one-day protectant test, read-out: COCHSA percent control of disease
Description: The activity of the compounds as effective fungicides was determined by applying the compounds to plants and observing control of fungal disease. The compounds were formulated at 200 ppm in 10 vol. percent acetone plus 90 vol. percent Triton X water (deionized water 99.99 wt. percent+0.01 wt. percent Triton X100), giving a “formulated test compound.” In a few cases, compounds were formulated at 100, 75 or 8.3 ppm rather than 200 ppm in 10 vol. percent acetone plus 90 vol. percent Triton X water (deionized water 99.99 wt. percent+0.01 wt. percent Triton X100), giving a ‘formulated test compound’. The compounds were tested for ability to control plant diseases in a 1-day protectant test (1DP) or a 2-day curative test (2DC). Formulated test compounds were applied to plants using a turn table sprayer fitted with two opposing air atomization nozzles which delivered approximately 1500 L/ha of spray volume. Plants were inoculated with spores of the fungus the next day (1DP), then incubated in an environment conducive to disease development. In a few cases, the compounds were tested for ability to control plant disease in a two-day curative test. Plants were inoculated with spores of the fungus two days prior to compound application, and incubated in an environment conducive to disease development both before and after compound application (2DC). For all types of tests, disease severity was evaluated 4 to 28 days later, depending on the speed of disease development.
Each pot contained 3-8 seedlings. These plants were sprayed until wet with the formulated test compound. On the following day, the leaves were inoculated with an aqueous spore suspension of Cochliobolus sativus and the plants were kept in high humidity for one to two days to permit spores to germinate and infect the leaf. The plants were then transferred to a greenhouse until disease developed on untreated control plants.
The following table presents the activity of typical compounds of the present invention when evaluated in these experiments. The effectiveness of the test compounds in controlling disease was determined by assessing the severity of disease on treated plants, then converting the severity to percent control based on the level of disease on untreated, inoculated plants.
TABLE 4: Activity of compounds as fungicides. Data are the level at which the given disease was controlled when the given compound was applied to the foliage of the plant at 200 ppm. In a few cases (noted in the table) the compound was applied to the plant at 100, 75 or 8.3 ppm. The plant was inoculated with the fungus one day after treatment. In a few cases (noted in the table) the plant was inoculated with the fungus two days before treatment.

[4] = test system: Leptosphaeria nodorum; assay: Glume Blotch of Wheat (LEPTNO), whole-plant fungicide test; settings: Parastagonospora nodorum, read-out: LEPTNO percent control of disease; for pest or weed control at 200 ppm: foliar, 24 h, 200 ppm on foliage, one-day protectant test
[5] = test system: Colletotricum lagenarium; assay: Cucumber Anthracnose (COLLLA), whole-plant fungicide test; settings: 200 ppm on foliage, one-day protectant test; for pest or weed control at 200 ppm: Cucumis sativus, foliar, 24 h, read-out: COLLLA percent control of disease
[6] = test system: Erysiphe cichoracaerum; assay: Cucumber Powdery Mildew (ERYSCI), whole-plant fungicide test; settings: 200 ppm on foliage, one-day protectant test; for pest or weed control at 200 ppm: Erysiphe, foliar, 24 h, read-out: ERYSCI percent control of disease
[7] = test system: Magnaporthe grisea; assay: whole plant or invertebrate; settings: for pest or weed control at 200 ppm: foliar, read-out: PYRIOR percent control of disease, 200 ppm on foliage, rice, one-day protectant test
[8] = test system: Septoria tritici; assay: Speckled Leaf Blotch of Wheat (SEPTTR), whole-plant fungicide test; settings: Zymoseptoria tritici, read-out: SEPTTR percent control of disease; for pest or weed control at 200 ppm: foliar, 200 ppm on foliage; for pest or weed control at 100 ppm: 100 ppm (footnote a); for pest or weed control at 75 ppm: 75 ppm (footnote d)
[9] = Pyricularia oryzae, in Oryza sativa, 24 h

SMILES | pest or weed control at 200 ppm [1] | pest or weed control at 200 ppm [2] | pest or weed control at 200 ppm [3] | pest or weed control at 200 ppm [4] | pest or weed control at 200 ppm [5] | pest or weed control at 200 ppm [6] | pest or weed control at 200 ppm [7, 9] | pest or weed control at 200 ppm ([8]; 24 h, one-day protectant test) | pest or weed control at 100 ppm ([8]; 24 h, one-day protectant test) | pest or weed control at 75 ppm ([8]; 24 h, one-day protectant test) | PUCCRT percent control of disease [1] | pest or weed control at 100 ppm ([8]; 48 h, two-day curative test (footnote b)) | PHYTIN percent control of disease ([2]; 200 ppm on foliage, tomato, one-day protectant test) | pest or weed control at 100 ppm ([4]; 48 h, 100 ppm (footnote a), two-day curative test (footnote b)) | COLLLA percent control of disease [5] | ERYSCI percent control of disease [6] | PYRIOR percent control of disease ([7]; 200 ppm on foliage, rice, one-day protectant test) | pest or weed control at 8.3 ppm ([7]; Pyricularia oryzae, in Oryza sativa, 24 h, read-out: PYRIOR percent control of disease, 8.3 ppm (footnote c), rice, one-day protectant test)
COc1ccc(C(C)Nc2ncnc3sc(Br)cc23)cc1 (stereo not drawn) [Compound 48, (6-Bromothieno[2,3-d]pyrimidin-4-yl)-[1-(4-methoxyphenyl)ethyl]amine] | 0 to 49% | 0 to 49% | 80 to 100% | 0 to 49% | 0 to 49% | 0 to 49% | 0 to 49% | – | – | – | – | – | – | – | – | – | – | –
CCOC(=O)c1sc2ncnc(NC(C)c3ccc(OC)cc3)c2c1OC (stereo not drawn) [Compound 51, 5-Methoxy-4-[1-(4-methoxyphenyl)ethylamino]thieno[2,3-d]pyrimidine-6-carboxylic Acid Ethyl Ester] | 0 to 49% | – | 0 to 49% | 0 to 49% | – | – | – | 0 to 49% | – | – | – | – | – | – | – | – | – | –
FC(F)(F)COc1ccc(CCNc2ncnc3scc(Cl)c23)cn1 [Compound 5a] | 80 to 100% | 80 to 100% | – | 80 to 100% | 50 to 79% | 80 to 100% | 80 to 100% | – | 80 to 100% | – | – | – | – | – | – | – | – | –
COc1ccc(C(C)Nc2ncnc3scc(C#N)c23)cc1 (stereo not drawn) [Compound 49, 5-Cyano-N-[1-(4-methoxyphenyl)ethyl]thieno[2,3-d]pyrimidin-4-amine] | 80 to 100% | 0 to 49% | 50 to 79% | 0 to 49% | 0 to 49% | – | 80 to 100% | – | – | – | – | – | – | – | – | – | – | –
COc1ncc(C(C)Nc2ncnc3scc(Cl)c23)cn1 (stereo not drawn) [Compound 55] | 80 to 100% | 80 to 100% | 0 to 49% | 50 to 79% | 0 to 49% | – | 50 to 79% | 80 to 100% | – | – | – | – | – | – | – | – | – | –
O=C(Oc1ccc(CCNc2ncnc3scc(Cl)c23)cc1)C1(F)C(F)(F)C(F)(F)C(F)(F)C(F)(F)C1(F)F [Compound 9a, 1,2,2,3,3,4,4,5,5,6,6-undecafluoroclohexanecarboxylic Acid 4-[2-(5-chlorothieno[2,3-d]pyrimidin-4-ylamino)ethyl]phenyl Ester] | 80 to 100% | 0 to 49% | – | 0 to 49% | 0 to 49% | 0 to 49% | 80 to 100% | – | – | 80 to 100% | – | – | – | – | – | – | – | –
CCOC(=O)c1csc2ncnc(NC(C)c3ccc(OC)cc3)c12 (stereo not drawn) [Compound 50, 5-Carboethoxy-N-[1-(4-methoxyphenyl)ethyl]thieno[2,3-d]pyrimidin-4-amine] | 0 to 49% | 0 to 49% | 50 to 79% | 0 to 49% | 0 to 49% | – | 0 to 49% | – | – | – | – | – | – | – | – | – | – | –
OCC(Nc1ncnc2scc(Cl)c12)c1ccccc1 (stereo not drawn) [Compound 69] | – | – | – | – | – | – | – | – | – | – | * (* is 0-49 percent control of disease) | 50 to 79% | * (* is 0-49 percent control of disease) | 50 to 79% | * (* is 0-49 percent control of disease) | * (* is 0-49 percent control of disease) | * (* is 0-49 percent control of disease) | –
COc1ccc(C(C)Nc2ncnc3sc([N+](=O)[O-])cc23)cc1 (stereo not drawn) [Compound 47, [1-(4-Methoxyphenyl)ethyl]-(6-nitrothieno[2,3-d]pyrimidin-4-yl)amine] | 80 to 100% | 0 to 49% | 0 to 49% | 50 to 79% | 0 to 49% | 0 to 49% | 80 to 100% | – | – | – | – | – | – | – | – | – | – | –
CCOc1csc2ncnc(NC(C)c3ccc(OC)nc3)c12 (stereo not drawn) [Compound 46] | 80 to 100% | 0 to 49% | 0 to 49% | 50 to 79% | 0 to 49% | 50 to 79% | 80 to 100% | – | – | – | – | – | – | – | – | – | – | –
COc1ccc(OCC(C)Nc2ncnc3scc(Cl)c23)cn1 (stereo not drawn) [Compound 53] | 80 to 100% | 0 to 49% | 50 to 79% | 0 to 49% | 0 to 49% | – | 50 to 79% | 50 to 79% | – | – | – | – | – | – | – | – | – | –
Clc1csc2ncnc(N3CCCC3c3cccnc3)c12 (stereo not drawn) [Compound 56] | 50 to 79% | 0 to 49% | 0 to 49% | 0 to 49% | 0 to 49% | 0 to 49% | 0 to 49% | – | – | – | – | – | – | – | – | – | – | –
CC(Nc1ncnc2scc(Cl)c12)c1ccc(F)nc1 (stereo not drawn) [Compound 40] | 80 to 100% | – | 50 to 79% | 50 to 79% | – | – | – | – | – | – | – | – | – | – | – | – | – | –
CC(C)(C)OC(=O)Nc1ccc(CCNc2ncnc3scc(Cl)c23)cc1 [Compound 10a, {4-[2-(5-chlorothieno[2,3-d]pyrimidin-4-ylamino)ethyl]phenyl}carbamic Acid t-butyl Ester] | 0 to 49% | – | – | 0 to 49% | 0 to 49% | 0 to 49% | – | – | – | 80 to 100% | – | – | – | – | – | – | – | 80 to 100%
CC(=O)COc1ccc(CCNc2ncnc3scc(Cl)c23)cc1 [Compound 6a] | 80 to 100% | 80 to 100% | – | 50 to 79% | 50 to 79% | 0 to 49% | 80 to 100% | – | – | 0 to 49% | – | – | – | – | – | – | – | –
CC(Nc1ncnc2scc(Cl)c12)c1cnc(OCC(F)(F)F)nc1 (stereo not drawn) [Compound 54] | 80 to 100% | 80 to 100% | 0 to 49% | 50 to 79% | 0 to 49% | – | 80 to 100% | 50 to 79% | – | – | – | – | – | – | – | – | – | –
CCOc1csc2ncnc(N[C@@H](C)c3ccc(OC)cc3)c12 [Compound 43] | 50 to 79% | 0 to 49% | 0 to 49% | 0 to 49% | 0 to 49% | – | 50 to 79% | – | – | – | – | – | – | – | – | – | – | –
CC(Nc1ncnc2scc(Cl)c12)c1ccc(OCCF)nc1 (stereo not drawn) [Compound 75] | 80 to 100% | 0 to 49% | – | 0 to 49% | 50 to 79% | 80 to 100% | 80 to 100% | – | – | – | – | – | – | – | – | – | – | –
CC(Nc1ncnc2scc(Cl)c12)C1CC1COCC(F)(F)F (stereo not drawn) [Compound 87] | 80 to 100% | 0 to 49% | – | 0 to 49% | 0 to 49% | 80 to 100% | 80 to 100% | – | – | – | – | – | – | – | – | – | – | –
